Experimental data taken from ChEMBL document CHEMBL4118237 (Bioorg Med Chem, 2018).
Calls of active or inactive are those of the source. The calls are words filed in the database; no cut-off is given here. *1 amine or outer side, *2 acyl side, *3 side chain or, on linkers, in order; H or OH if unused. Where a SMILES comes first, the peptide text is derived from it. Bridges are numbered along the chain shown (N, C = ends). Roman numbers before positions name the chains, in order. [ ]: non-standard residue; d: D form. Piperazine(1,4-diyl) = C1CN([*:2])CCN1[*:1]; Dmt = Cc1cc(O)cc(C)c1C[C@H](N)C(=O)O; Cystamine = C(CSSCCN[*:2])N[*:1]

Experiments:
Mu-type opioid receptor [1] = biological target: T1, Mu-type opioid receptor (Homo sapiens, UniProt P35372); experiment: Agonist activity at MOR (unknown origin) expressed in HEK cells assessed as reduction in cAMP accumulation by split luciferase assay relative to DAMGO; type: functional, cell-based
T1 sequence (P35372 whole entry): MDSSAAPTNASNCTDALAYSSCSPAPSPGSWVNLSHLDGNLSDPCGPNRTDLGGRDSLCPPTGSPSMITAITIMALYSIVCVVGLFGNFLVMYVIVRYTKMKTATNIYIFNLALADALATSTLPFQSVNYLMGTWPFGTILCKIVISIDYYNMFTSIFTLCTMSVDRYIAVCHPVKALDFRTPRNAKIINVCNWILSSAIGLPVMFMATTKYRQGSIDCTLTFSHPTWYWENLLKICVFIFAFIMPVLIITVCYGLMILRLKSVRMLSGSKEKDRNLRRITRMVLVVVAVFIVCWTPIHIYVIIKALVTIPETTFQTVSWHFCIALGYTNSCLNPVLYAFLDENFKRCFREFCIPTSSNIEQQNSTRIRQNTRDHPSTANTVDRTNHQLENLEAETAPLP

Mu-type opioid receptor [2] = biological target: T1, Mu-type opioid receptor; experiment: Antagonist activity at MOR (unknown origin) expressed in HEK cells assessed as cAMP accumulation by split luciferase assay; type: functional, cell-based
[3] = biological target: T2, Delta-type opioid receptor (Homo sapiens, UniProt P41143); experiment: Antagonist activity at DOR (unknown origin) expressed in HEK cells assessed as cAMP accumulation by split luciferase assay; type: functional, cell-based
T2 sequence (P41143 whole entry): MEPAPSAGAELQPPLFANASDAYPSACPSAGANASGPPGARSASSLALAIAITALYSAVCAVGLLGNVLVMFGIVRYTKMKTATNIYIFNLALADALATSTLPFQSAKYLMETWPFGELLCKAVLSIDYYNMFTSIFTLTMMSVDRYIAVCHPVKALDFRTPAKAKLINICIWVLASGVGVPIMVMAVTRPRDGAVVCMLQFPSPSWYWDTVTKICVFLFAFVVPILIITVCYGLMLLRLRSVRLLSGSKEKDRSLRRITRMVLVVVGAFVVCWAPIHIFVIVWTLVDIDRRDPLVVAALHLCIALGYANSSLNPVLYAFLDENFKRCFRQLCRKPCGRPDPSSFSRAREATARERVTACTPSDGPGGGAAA

[4] = biological target: T3, Kappa-type opioid receptor (Homo sapiens, UniProt P41145); experiment: Agonist activity at KOR (unknown origin) expressed in HEK cells assessed as reduction in cAMP accumulation by split luciferase assay relative to salvinorin A; type: functional, cell-based
T3 sequence (P41145 whole entry): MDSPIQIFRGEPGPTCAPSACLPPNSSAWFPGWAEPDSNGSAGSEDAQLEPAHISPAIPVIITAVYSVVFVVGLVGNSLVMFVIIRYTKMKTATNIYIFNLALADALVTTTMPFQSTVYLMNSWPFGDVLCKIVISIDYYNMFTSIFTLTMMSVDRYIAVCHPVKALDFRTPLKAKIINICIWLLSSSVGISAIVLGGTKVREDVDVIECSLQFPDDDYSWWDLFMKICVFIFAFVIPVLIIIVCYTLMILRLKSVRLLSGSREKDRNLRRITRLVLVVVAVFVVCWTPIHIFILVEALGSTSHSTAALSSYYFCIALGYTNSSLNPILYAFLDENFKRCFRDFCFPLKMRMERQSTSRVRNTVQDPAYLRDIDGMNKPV

[5] = biological target: T3, Kappa-type opioid receptor; experiment: Antagonist activity at KOR (unknown origin) expressed in HEK cells assessed as cAMP accumulation by split luciferase assay; type: functional, cell-based
[6] = biological target: T2, Delta-type opioid receptor; experiment: Agonist activity at DOR (unknown origin) expressed in HEK cells assessed as reduction in cAMP accumulation by split luciferase assay relative to DADLE; type: functional, cell-based
[7] = biological target: T3, Kappa-type opioid receptor; experiment: Agonist activity at KOR (unknown origin) expressed in HEK cells assessed as reduction in cAMP accumulation by split luciferase assay; type: functional, cell-based
[8] = biological target: T2, Delta-type opioid receptor; experiment: Displacement of [3H]DADLE from DOR (unknown origin) expressed in HEK cells; type: cell-based
Mu-type opioid receptor [9] = biological target: T1, Mu-type opioid receptor; experiment: Displacement of [3H]DAMGO from MOR (unknown origin) expressed in HEK cells; type: cell-based
[10] = biological target: T3, Kappa-type opioid receptor; experiment: Displacement of [3H]U69593 from KOR (unknown origin) expressed in HEK cells; type: cell-based
Mu-type opioid receptor [11] = biological target: T1, Mu-type opioid receptor; experiment: Agonist activity at MOR (unknown origin) expressed in HEK cells assessed as reduction in cAMP accumulation by split luciferase assay; type: functional, cell-based
[12] = biological target: T2, Delta-type opioid receptor; experiment: Agonist activity at DOR (unknown origin) expressed in HEK cells assessed as reduction in cAMP accumulation by split luciferase assay; type: functional, cell-based
[13] = biological target: T3, Kappa-type opioid receptor; experiment: Binding affinity to KOR (unknown origin)

SMILES	Emax (Mu-type opioid receptor [1]) [%]	Activity (Mu-type opioid receptor [2])	Activity [3]	Emax [4] [%]	Activity [5]	Emax [6] [%]	EC50 [7] [nM]	Ki [8] [nM]	Ki (Mu-type opioid receptor [9]) [nM]	Ki [10] [nM]	EC50 (Mu-type opioid receptor [11]) [nM]	EC50 ([12]; read-out: EC50) [nM]	EC50 ([12]; read-out: pEC50 (converted)) [nM]	Ki [13] [nM]
CC1(C)SSC(C)(C)[C@H](NC(=O)[C@@H](N)Cc2ccc(O)cc2)C(=O)NCC(=O)N[C@@H](Cc2ccccc2)C(=O)N2CCN(CC2)C(=O)[C@H](Cc2ccccc2)NC(=O)CNC(=O)[C@H]1NC(=O)[C@@H](N)Cc1ccc(O)cc1 (HELM PEPTIDE1{Y.[Pen].G.F}|PEPTIDE2{Y.[Pen].G.F}|CHEM1{[C1CN([*:2])CCN1[*:1]]}$PEPTIDE1,PEPTIDE2,2:R3-2:R3|PEPTIDE1,CHEM1,4:R2-1:R1|PEPTIDE2,CHEM1,4:R2-1:R2$$$V2.0)	86	inactive	inactive	62	inactive	206	–	–	–	–	–	–	–	–
N[C@@H](Cc1ccc(O)cc1)C(=O)N[C@@H]1CSSC[C@@H](NC(=O)[C@@H](N)Cc2ccc(O)cc2)C(=O)NCC(=O)N[C@@H](Cc2ccccc2)C(=O)N2CCN(CC2)C(=O)[C@H](Cc2ccccc2)NC(=O)CNC1=O (HELM PEPTIDE1{Y.[dC].G.F}|PEPTIDE2{Y.[dC].G.F}|CHEM1{[C1CN([*:2])CCN1[*:1]]}$PEPTIDE1,PEPTIDE2,2:R3-2:R3|PEPTIDE1,CHEM1,4:R2-1:R1|PEPTIDE2,CHEM1,4:R2-1:R2$$$V2.0)	54	inactive	inactive	92	inactive	77	339	27	8.9	19	513	245	–	–
N[C@@H](Cc1ccc(O)cc1)C(=O)N[C@@H]1CSSC[C@@H](NC(=O)[C@@H](N)Cc2ccc(O)cc2)C(=O)NCC(=O)N[C@@H](Cc2ccccc2)C(=O)NCCSSCCNC(=O)[C@H](Cc2ccccc2)NC(=O)CNC1=O (HELM PEPTIDE1{Y.[dC].G.F}|PEPTIDE2{Y.[dC].G.F}|CHEM1{[C(CSSCCN[*:2])N[*:1]]}$PEPTIDE1,PEPTIDE2,2:R3-2:R3|PEPTIDE1,CHEM1,4:R2-1:R1|PEPTIDE2,CHEM1,4:R2-1:R2$$$V2.0)	90	inactive	inactive	99	inactive	91	135	4.1	2.4	18	87.1	26.9	–	–
Cc1cc(O)cc(C)c1C[C@H](N)C(=O)N[C@@H]1CSSC[C@@H](NC(=O)[C@@H](N)Cc2c(C)cc(O)cc2C)C(=O)NCC(=O)N[C@@H](Cc2ccccc2)C(=O)NCCSSCCNC(=O)[C@H](Cc2ccccc2)NC(=O)CNC1=O (I: H-[Dmt][dC]GF / II: H-[Dmt][dC]GF; disulfide I:2-II:2; linker I:C-II:C via Cystamine)	119	inactive	inactive	98	inactive	106	13.5	0.46	0.27	0.87	3.47	1.45	–	–
Cc1cc(O)cc(C)c1C[C@H](N)C(=O)N[C@@H]1CSSC[C@@H](NC(=O)[C@@H](N)Cc2c(C)cc(O)cc2C)C(=O)NCC(=O)N[C@@H](Cc2ccccc2)C(=O)N2CCN(CC2)C(=O)[C@H](Cc2ccccc2)NC(=O)CNC1=O (I: H-[Dmt][dC]GF / II: H-[Dmt][dC]GF; disulfide I:2-II:2; linker I:C-II:C via Piperazine(1,4-diyl))	58	inactive	inactive	82	inactive	90	63.1	2	2.5	4.9	112	117	11.7	–
C[C@@H](NC(=O)[C@@H](N)Cc1ccc(O)cc1)C(=O)NCC(=O)N[C@@H](Cc1ccccc1)C(=O)NNC(=O)[C@H](Cc1ccccc1)NC(=O)CNC(=O)[C@@H](C)NC(=O)[C@@H](N)Cc1ccc(O)cc1 [BIPHALIN]	–	–	–	–	–	–	–	–	–	–	–	–	–	270
